Assay results as given in publication PMC7070443, “New Hybrid Pyrazole and Imidazopyrazole Antinflammatory Agents Able to Reduce ROS Production in Different Biological Targets” (Molecules, 2020).

What was measured:
human platelets [1] = assay: ROS production inhibition in thrombin-stimulated washed platelets (DCFH-DA, flow cytometry); type: cell-based; conditions: for IC50: washed human platelets, 0.1 U/mL thrombin, DCFH-DA, mean +/- SD, at least six experiments in duplicate
Protocol: (§1) Freshly drawn venous blood from healthy volunteers of the “Centro Trasfusionale, Ospedale San Martino” in Genoa was collected into 130 mM aqueous trisodium citrate anticoagulant solution (9:1). The donors claimed to have not taken drugs known to interfere with platelet function during two weeks prior to blood collection and gave their informed consent. Washed platelets were prepared centrifuging whole blood at 100× g for 20 min. The obtained platelet-rich plasma was then centrifuged at 1100× g for 15 min. Pellet was washed once with pH 5.2 ACD solution (75 mM trisodium citrate, 42 mM citric acid and 136 mM glucose), centrifuged at 1100× g for 15 min and then re-suspended in pH 7.4 Hepes buffer (145 mM NaCl, 5 mM KCl, 1 mM MgSO4, 10 mM glucose, 10 mM HEPES).
ROS production was quantified as previously reported by DCFH-DA, a ROS-sensitive probe that yields upon oxidation the fluorescent adduct DCF that is trapped inside the cells. Briefly, washed platelets (1.0 × 10^8/mL), pre-incubated with saline, compounds 4 or 5, for 15 min at 37 °C, were stimulated by 0.1 U/mL thrombin. Incubation was stopped by cooling samples in ice bath and then samples were immediately analyzed in a Merck Millipore Bioscience Guava easyCyte flow cytometer (Merk Millipore, Burlington, MA, USA). The reported IC50 value is the molar concentration of the compound able to obtain 50% inhibition of the […] induced by the agonist and is calculated by the percentage of inhibition that is the inhibition of the […] measured in the presence of the agent compared with that measured in a control sample containing saline, carried out under the same conditions.

human neutrophils [2] = assay: Flow cytometric evaluation of ROS production in fMLP-activated neutrophils (DCFH-DA); type: cell-based; conditions: for inhibition at 10 µM: Homo sapiens, Neutrophil, DCFH-DA method, read-out: ROS production inhibition percentage
Excerpt: Heparinized (heparin 10 U/mL Vister, PfizerItalia, Borgo San Michele, Latina, Italy) venous blood was obtained from healthy male volunteers after written informed consent. Neutrophils were isolated by dextran sedimentation (Dextran 70.000 Plander, Fresenius Kabi Italia, Verona, Italy), and subsequent centrifugation on a Ficoll-Hypaque density gradient (Lympholyte-I from Cedarlane Laboratories Ltd. Hornby, ON, Canada), as described. Contaminating erythrocytes were removed by hypotonic lysis. Neutrophils were washed and resuspended in Hanks’balanced salt solution (HBSS; EuroCLone, Wetherby West, Yorkshire, UK) mixed with Dulbecco’s PBS (EuroClone; HBBS:PBS. Final cell suspensions contained 97% or more neutrophils and more than 98% viable cells, as evaluated by a trypan blue test kit (Sigma Aldrich).
Flow cytometric analysis of neutrophil oxidative metabolism was carried out according to literature method. Briefly, neutrophils, were cultured for 1 h with or without 4d and 5d at different concentration. Thereafter, neutrophils were pre-treated with 2′-7′-dichlorofluorescein-diacetate (DCFH-DA; Sigma, Milan, Italy) ([…]), During the incubation time, DCFH-DA entered into the cells, and it was cleaved by intracellular esterases to give non-fluorescence DCFH trapped within the cells. After washing in PBS, the cells were incubated for 15 min at room temperature in the presence or absence of N-formyl-L-methionin-L-leucyl-L-phenylalanine (fMLP; Sigma, Milan, Italy) ([…]) for 30 min at 37 °C. During this period, intracellular ROS oxidized DCFH to give a green fluorescence […]. The reaction was stopped by keeping the samples on ice before being analyzed by flow cytometry (FC500, Beckman Coulter).

human platelets [3] = assay: Platelet aggregation inhibition (Born's method, thrombin-stimulated washed platelets); type: cell-based; conditions: Platelet, 0.1 U/mL thrombin, mean +/- SD, at least six experiments in duplicate
Protocol: as §1
Platelet aggregation was performed in a Bio-Data Aggregometer (Bio-Data Corporation, Horsham, PA, USA) according to Born’s method and quantified by the light transmission reached within 6 min at 37 °C. Briefly, washed platelets (3.0 × 10^8/mL) were pre-incubated for 3 min at 37 °C with saline, compound 4 or 5 before the addition of 0.1 U/mL thrombin. The IC50 values were calculated as above detailed.

human neutrophils [4] = assay: Cell vitality by propidium iodide (PI) method in neutrophils; type: cell-based; conditions: 10 µM
Protocol: (§2) In the same test, cell vitality in presence of 4d (10 µM) was assessed by propidium iodide (PI) method at the end of the incubation time. In detail, in the same tubes we added PI staining solution (10 μg/mL, Invitrogen ThermoFisher Scientific, Waltham, MA, USA) to detect dead cells. PI is excited at 488 nm and, emits at a maximum wavelength of 617 nm. Because of these spectral characteristics, PI can be used in combination with other fluorochromes excited at 488 nm such as fluorescein isothiocyanate (FITC). Auto-fluorescence levels of sample were measured and subtracted from each analysis. Data were expressed as mean fluorescence intensity ((MFI), compared with the expression on cells stimulated with control medium alone (defined as 100%)).

PDE4B2 = target: T1, PDE4B2 (Homo sapiens, UniProt Q07343); assay: PDE4 enzymatic assay (IMAP fluorescence polarisation); type: biochemical; conditions: for inhibition at 10 µM: in duplicate, read-out: inhibition of PDE4B2, preliminary test; for IC50: human recombinant enzyme
T1 construct: host or cells: Spodoptera frugiperda (Sf9), baculovirus
Protocol: (§3) PDE4 tests were performed by Scottish Biomedical Drug Discovery (Scottish, Biomedical Drug Discovery, Glasgow, UK) using human recombinant enzyme obtained from Spodoptera frugiperda (Sf9) cells using a baculovirus expression system (PDE enzyme at 0.5 U/mL in 20 mM Tris.HCl pH 7.4) as previously reported. IMAP technology is based on the high affinity binding of phosphate by immobilized metal coordination complexes on nanoparticles. The binding reagent complexes with phosphate groups on nucleotide monophosphate generated from cyclic nucleotides ([…]) through phosphodiesterases. With fluorescence polarisation detection, binding causes a change in the rate of the molecular motion of the phosphate bearing molecule, and results in an increase in the fluorescence polarization value observed for the fluorescent label attached to the substrate.
(§4) Title compounds 4d and 5d were solved in DMSO at 10^−2 M concentration and then diluted with water to the final suitable concentrations. All our subsequent assays were performed in 3% DMSO (final). All the compounds were tested preliminary at 10 µM concentration, in duplicate.
(§5) In all the experiments, Rolipram as reference compound (at 10 μM for PDE4B2 and 1 μM for PDE4D3) was tested at nine concentrations, in duplicate, to obtain an inhibition curve in order to validate this experiment.
(§6) Being inhibition >50%, 4d and 5d have been further tested in the same assay at five different concentrations (5 × 10^−8–10^−4 M) and IC50 values were determined by nonlinear regression analysis of the inhibition curve, using Hill equation curve fitting (Graph Pad Prism software, version 5.0a).

PDE4D3 [5] = target: T2, PDE4D3 (Homo sapiens, UniProt Q08499); assay: as above; type: biochemical; conditions: for inhibition at 10 µM: in duplicate, read-out: inhibition of PDE4D3, preliminary test; for IC50: human recombinant enzyme
T2 construct: host or cells: Spodoptera frugiperda (Sf9), baculovirus
Protocol: as §3, §4, §5, §6

human neutrophils [6] = assay: Neutrophil chemotaxis inhibition (fMLP stimulated); type: cell-based; conditions: data not shown
PDE4D3 [7] = conditions: Figure 2; cited from earlier work
[8] = Cell vitality by propidium iodide (PI) method in neutrophils; type: cell-based; conditions: human, human neutrophils, PI method
Protocol: as §2

PDE1 = assay: Preliminary PDE selectivity evaluation; type: biochemical; conditions: 10 µM; data not shown
PDE2 = PDE2 (Homo sapiens, UniProt O00408); assay: Preliminary PDE selectivity evaluation; type: biochemical; conditions: 10 µM; data not shown
PDE3 = assay: Preliminary PDE selectivity evaluation; type: biochemical; conditions: 10 µM; data not shown
PDE5 = PDE5 (Homo sapiens, UniProt O76074); assay: Preliminary PDE selectivity evaluation; type: biochemical; conditions: 10 µM; data not shown
PDE7 = assay: Preliminary PDE selectivity evaluation; type: biochemical; conditions: 10 µM; data not shown

T1 sequence (Q07343 1-564 isoform Q07343-2): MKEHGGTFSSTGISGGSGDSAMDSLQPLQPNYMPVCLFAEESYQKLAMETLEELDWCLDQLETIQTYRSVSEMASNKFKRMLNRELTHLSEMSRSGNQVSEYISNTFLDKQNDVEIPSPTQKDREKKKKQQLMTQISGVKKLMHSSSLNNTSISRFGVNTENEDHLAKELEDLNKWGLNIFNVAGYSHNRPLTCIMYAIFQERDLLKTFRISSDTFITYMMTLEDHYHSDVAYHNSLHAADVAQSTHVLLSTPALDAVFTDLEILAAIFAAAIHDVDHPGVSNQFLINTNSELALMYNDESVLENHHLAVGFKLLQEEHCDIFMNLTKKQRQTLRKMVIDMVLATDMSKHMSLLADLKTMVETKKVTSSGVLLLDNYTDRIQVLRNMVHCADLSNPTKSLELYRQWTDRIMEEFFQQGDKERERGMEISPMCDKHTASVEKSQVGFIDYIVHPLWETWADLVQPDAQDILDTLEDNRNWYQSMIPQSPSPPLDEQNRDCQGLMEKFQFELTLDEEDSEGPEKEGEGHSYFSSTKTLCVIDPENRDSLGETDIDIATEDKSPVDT
T2 sequence (Q08499 1-673 isoform Q08499-2): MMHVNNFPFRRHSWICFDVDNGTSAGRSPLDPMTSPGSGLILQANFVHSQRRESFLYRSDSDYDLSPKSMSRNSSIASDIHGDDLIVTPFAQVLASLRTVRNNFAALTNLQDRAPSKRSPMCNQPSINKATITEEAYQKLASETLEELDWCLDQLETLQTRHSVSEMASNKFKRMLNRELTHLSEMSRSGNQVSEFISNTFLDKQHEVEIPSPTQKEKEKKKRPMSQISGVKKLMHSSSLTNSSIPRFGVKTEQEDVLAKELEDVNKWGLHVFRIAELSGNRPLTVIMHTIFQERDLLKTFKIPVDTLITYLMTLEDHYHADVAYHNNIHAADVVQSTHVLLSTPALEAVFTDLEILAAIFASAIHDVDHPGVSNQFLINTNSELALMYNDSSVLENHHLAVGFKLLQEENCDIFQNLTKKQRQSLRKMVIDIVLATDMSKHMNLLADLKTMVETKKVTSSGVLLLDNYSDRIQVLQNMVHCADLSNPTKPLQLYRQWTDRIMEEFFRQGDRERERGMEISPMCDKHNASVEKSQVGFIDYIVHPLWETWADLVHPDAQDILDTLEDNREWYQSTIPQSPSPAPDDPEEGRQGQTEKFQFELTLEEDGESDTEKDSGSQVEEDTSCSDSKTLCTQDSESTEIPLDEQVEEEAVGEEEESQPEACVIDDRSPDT
Sequence of PDE2 (O00408 whole entry): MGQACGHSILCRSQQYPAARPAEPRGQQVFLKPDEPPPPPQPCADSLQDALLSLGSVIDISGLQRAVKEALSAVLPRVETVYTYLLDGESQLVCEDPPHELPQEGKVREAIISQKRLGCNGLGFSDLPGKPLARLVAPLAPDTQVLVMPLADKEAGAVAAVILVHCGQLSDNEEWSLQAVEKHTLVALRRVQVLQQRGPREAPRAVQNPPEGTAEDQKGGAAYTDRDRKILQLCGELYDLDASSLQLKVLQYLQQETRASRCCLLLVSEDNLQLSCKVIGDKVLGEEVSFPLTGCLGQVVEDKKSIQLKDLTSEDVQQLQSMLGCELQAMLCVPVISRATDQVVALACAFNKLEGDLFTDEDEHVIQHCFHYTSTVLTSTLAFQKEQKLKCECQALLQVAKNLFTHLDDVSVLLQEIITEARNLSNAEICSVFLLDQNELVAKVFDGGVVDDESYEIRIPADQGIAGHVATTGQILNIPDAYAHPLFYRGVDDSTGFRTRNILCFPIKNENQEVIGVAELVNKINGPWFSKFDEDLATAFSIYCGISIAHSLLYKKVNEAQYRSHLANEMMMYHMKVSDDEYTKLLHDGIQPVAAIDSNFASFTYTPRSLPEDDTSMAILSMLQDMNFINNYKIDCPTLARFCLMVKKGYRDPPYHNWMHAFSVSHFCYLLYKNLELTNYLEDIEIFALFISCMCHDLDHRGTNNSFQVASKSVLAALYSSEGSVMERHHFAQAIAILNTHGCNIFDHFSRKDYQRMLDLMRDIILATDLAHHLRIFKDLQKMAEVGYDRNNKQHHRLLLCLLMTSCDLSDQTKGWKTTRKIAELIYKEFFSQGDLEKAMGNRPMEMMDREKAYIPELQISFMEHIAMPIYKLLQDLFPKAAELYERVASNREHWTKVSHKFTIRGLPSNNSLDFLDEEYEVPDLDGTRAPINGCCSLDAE

Compound | IC50 (human platelets [3]) [µM] | IC50 (human platelets [1]; Homo sapiens, Platelet) [µM] | inhibition at 10 µM (human neutrophils [2]) [%] | cytotoxic action (PI method) (human neutrophils [4]) | inhibition at 10 µM (PDE4B2) [%] | IC50 (PDE4B2) [µM] | inhibition at 10 µM (PDE4D3 [5]) [%] | IC50 (PDE4D3 [5]) [µM] | chemotaxis inhibition (human neutrophils [6]) | IC50 (PDE4D3 [7]) [µM] | also measured
NNC(=O)c1cnn(CC(O)c2ccccc2)c1N (stereo not drawn) [compound 7, 5-Amino-1-(2-hydroxy-2-phenylethyl)-1H-pyrazole-4-carbohydrazide] | – | – | – | – | – | – | – | – | – | – | activity towards ROS production in platelets (in words) (human platelets [1]; human platelets, thrombin stimulated): completely inactive; activity towards ROS production in neutrophils (in words) (human neutrophils [2]; data not shown): completely inactive; melting point: 183 to 184 °C
COc1ccc(/C=N/NC(=O)c2cnn3c2NC(c2ccccc2)C3)cc1OC1CCCC1 (stereo not drawn) [5d, (E)-N′-(3-(cyclopentyloxy)-4-methoxybenzylidene)-2-phenyl-2,3-dihydro-1H-imidazo[1,2-b]pyrazole-7-carbohydrazide] | 71 ± 6.8 | 70.6 ± 7.4 | 63 | no cytotoxic action | > 50 | 0.55 | > 50 | 1.22 | very low or absent | – | –
COc1ccc(/C=N/OCC(O)CN2CC(C)OC(C)C2)cc1OC1CCCC1 (stereo not drawn) [GEBR-4a] | – | – | – | – | – | – | – | – | – | 2.8 | –
COc1ccc(/C=N/NC(=O)c2cnn(CC(O)c3ccccc3)c2N)cc1OC1CCCC1 (stereo not drawn) [4d, (E)-5-Amino-N′-(3-(cyclopentyloxy)-4-methoxybenzylidene)-1-(2-hydroxy-2-phenylethyl)-1H-pyrazole-4-carbohydrazide] | 29.8 ± 3.7 | 40 | 68 | no cytotoxic action | > 50 | 0.55 | > 50 | 1.05 | very low or absent | – | IC50 (human platelets [1]): 38.3 ± 2.8 µM; viability at 10 µM [8]: > 95%; inhibition of PDE1 (PDE1): no inhibition; inhibition of PDE2 (PDE2): no inhibition; inhibition of PDE3 (PDE3): no inhibition; inhibition of PDE5 (PDE5): no inhibition; inhibition of PDE7 (PDE7): no inhibition
COc1ccc(-c2ccn(CC(O)CN3CCOCC3)n2)cc1OC1CCCC1 (stereo not drawn) [GEBR-54] | – | – | – | – | – | – | – | – | – | 7.6 | –
